Measurements from patent US20260274894A1, “CYCLIC POLYPEPTIDE COMPOUND AND USE THEREOF” (BIVISION PHARMACEUTICALS, INC., priority 2023, published 2026).
Like-named read-outs stand apart in the source and are kept apart here. Numbered stars: 1 amine (or outer) side, 2 acyl side, 3 side chain; on linkers, the order of the positions; unused ones are H or OH. Bridge positions count the residues as written; N and C are the ends. Square brackets hold non-standard residues; d marks the D form. Side chains are listed from the residue outwards. Peptide text beside a SMILES is read from it. * marks the point of attachment. ξ: configuration not given here. NH(CH2)2(4-DOTA-piperazinyl) = O=C(O)CN1CCN(CC(=O)O)CCN(CC(=O)N2CCN(CCN*)CC2)CCN(CC(=O)O)CC1; NH(CH2)2O(CH2)2NHDOTA = O=C(O)CN1CCN(CC(=O)O)CCN(CC(=O)NCCOCCN*)CCN(CC(=O)O)CC1; X5 = CCCCCC(=O)N[C@@H](CSCc1cccc(C[*:2])c1)C(=O)N1CCC[C@@H](NC(=O)[*:1])C1; X6 = CCCCCC(=O)N[C@@H](CSCc1cccc(C[*:2])c1)C(=O)C1CCC[C@@H](CC(=O)[*:1])C1; X2 = O=C(O)CN1CCN(CC(=O)O)CCN(CC(=O)N2CCN(CCCN*)CC2)CCN(CC(=O)O)CC1; DOTA = O=C(O)CN1CCN(CC(=O)O)CCN(CC(=O)*)CCN(CC(=O)O)CC1; Azetidine3carboxylic = O=C(C1CN([*:1])C1)[*:2]; mXylylene = c1cc(C[*:1])cc(C[*:2])c1; Cha = N[C@@H](CC1CCCCC1)C(=O)O; Dab = NCC[C@H](N)C(=O)O; ξQ = NC(=O)CCC(N)C(=O)O; Hexanoyl = CCCCCC(=O)*; AEEA = NCCOCCOCC(=O)O; CO = O=C([*:1])[*:2]; Ahx = NCCCCCC(=O)O; ξP = O=C(O)C1CCCN1; GABA = NCCCC(=O)O; ξC = NC(CS)C(=O)O; NHBu = CCCCN*

How the values were obtained:
[1] = Determination of C Log P (n-octanol/water partition, gamma counts); assay type: physicochemical
Experimental: Two EP tubes were taken, and 100 μL of saturated n-octanol aqueous solution and 80 µL of pure water were added to each tube, respectively. […] After shaking and mixing for 2 hours, the tubes were centrifuged at room temperature at 2000 rpm/min for 5 minutes. 20 μL was taken from the upper layer (lipid layer) and lower layer (aqueous layer) of each tube, and gamma counts were measured.

HT1080 2 # = experiment: Therapeutic results of ^177Lu-labeled compound in tumor-bearing mice (tumor volume); assay type: in vivo, Balb/c Nude mice
Experimental: The body weight and tumor size were measured.

FAP protein = target: T1, FAP protein (Homo sapiens, UniProt Q12884); experiment: Biacore test of compound affinity to FAP protein; details: Biacore 8K, SA chip, 15° C., 1:1 binding model; for Kd: read-out: pKD (FAP) (converted)
T1 construct: purchased Sinobiological
T1 sequence (Q12884 1-760): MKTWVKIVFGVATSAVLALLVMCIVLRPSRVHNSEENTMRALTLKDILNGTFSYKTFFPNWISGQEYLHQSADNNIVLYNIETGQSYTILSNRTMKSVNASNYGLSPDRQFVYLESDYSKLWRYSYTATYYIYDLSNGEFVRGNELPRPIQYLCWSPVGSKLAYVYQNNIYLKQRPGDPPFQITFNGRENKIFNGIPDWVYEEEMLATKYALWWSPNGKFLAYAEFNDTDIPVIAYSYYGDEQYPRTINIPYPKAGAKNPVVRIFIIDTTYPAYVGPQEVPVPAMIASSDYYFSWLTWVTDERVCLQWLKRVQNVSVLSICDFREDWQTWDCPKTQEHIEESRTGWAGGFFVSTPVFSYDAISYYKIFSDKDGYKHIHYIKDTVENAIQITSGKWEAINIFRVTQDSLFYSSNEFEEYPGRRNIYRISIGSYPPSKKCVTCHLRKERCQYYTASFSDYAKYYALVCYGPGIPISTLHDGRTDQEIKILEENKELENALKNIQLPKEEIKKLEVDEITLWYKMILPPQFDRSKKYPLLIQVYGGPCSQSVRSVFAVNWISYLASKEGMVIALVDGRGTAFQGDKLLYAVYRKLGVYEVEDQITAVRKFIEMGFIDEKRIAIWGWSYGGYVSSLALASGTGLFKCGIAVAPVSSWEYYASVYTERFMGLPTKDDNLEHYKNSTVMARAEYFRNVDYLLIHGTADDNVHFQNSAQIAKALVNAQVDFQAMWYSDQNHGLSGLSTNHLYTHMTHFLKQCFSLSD
Experimental: The Biacore 8K (Cytiva) instrument was used to detect ligand binding of the FAP protein (Sinobiological). FAP protein was captured on the SA chip. […] The sensor surface was conditioned by injecting 1M NaCl three consecutive times in 50 mM NaOH. After each ligand injection, additional cleaning was performed using isopropanol in 1M NaCl and 50 mM NaOH (flow path 1 and 2, flow rate of 10 μL/min, injection time of 60 s). […] The analyte was run under the following conditions: analysis temperature of 15° C., analysis step=all set to LMW kinetics; cycle type=single cycle (contact time of 90 s, dissociation time of 1800 s, flow rate of 30 μL/min, flow channels 1 and 2); channel detection=2-1. Data was evaluated using the Biacore Insight Evaluation Software, and the data were fitted to a 1:1 binding model. The Biacore results are shown in Table 2 below: pKD=−Log KD, where KD is the binding affinity of the compound to the FAP protein as measured by Biacore.

CCCCCC(=O)N[C@H]1CCCCn2cc(nn2)CC(C(=O)N[C@@H](CCCCNC(=O)CN2CCN(CC(=O)O)CCN(CC(=O)O)CCN(CC(=O)O)CC2)C(=O)O)NC(=O)[C@H](Cc2ccccc2)NC(=O)[C@H](CCC(N)=O)NC(=O)[C@H]([C@@H](C)O)NC(=O)C2CCCN2C(=O)N[C@@H]2CCCN(C2)C1=O (single isomer, unassigned) [^177Lu -JHDC11, metal not drawn]
logP [1]: -3.65

CCCCCC(=O)N[C@H]1CCCCn2cc(nn2)CSC[C@@H](C(=O)N[C@@H](CCCCNC(=O)COCCNC(=O)CN2CCN(CC(=O)O)CCN(CC(=O)O)CCN(CC(=O)O)CC2)C(=O)O)NC(=O)[C@H](Cc2ccccc2)NC(=O)[C@H](CCC(N)=O)NC(=O)[C@H]([C@@H](C)O)NC(=O)[C@@H]2CCCN2C(=O)C2CN(C2)C1=O (single isomer, unassigned) [^177Lu -JHDC12, metal not drawn]
logP [1]: -3.81

CCCCNC(=O)N[C@H]1CSCc2cncc(c2)CSC[C@@H](C(=O)N[C@@H](CCC(=O)NCCN2CCN(C(=O)CN3CCN(CC(=O)O)CCN(CC(=O)O)CCN(CC(=O)O)CC3)CC2)C(=O)O)NC(=O)[C@H](CC2CCCCC2)NC(=O)[C@H](CCC(N)=O)NC(=O)[C@H]([C@@H](C)O)NC(=O)[C@@H]2CCCN2C(=O)C2CN(C2)C1=O (single isomer, unassigned) [^177Lu-JHDC46, metal not drawn]
Tumor volume (mm^3) (HT1080 2 #; Day 0): 400.31 ± 78.63 mm^3 | Tumor volume (mm^3) (HT1080 2 #; Day 2): 483.08 ± 95.00 mm^3 | Tumor volume (mm^3) (HT1080 2 #; Day 6): 203.26 ± 49.63 mm^3 | Tumor volume (mm^3) (HT1080 2 #; Day 9): 168.29 ± 33.83 mm^3 | Tumor volume (mm^3) (HT1080 2 #; Day 13): 313.94 ± 119.95 mm^3 | Tumor volume (mm^3) (HT1080 2 #; Day 16): 686.05 ± 297.66 mm^3

CCCCCC(=O)N[C@H]1CSCc2cccc(c2)CSCC(C(=O)N[C@@H](CCC(=O)NCCCN2CCN(C(=O)CN3CCN(CC(=O)O)CCN(CC(=O)O)CCN(CC(=O)O)CC3)CC2)C(=O)O)NC(=O)[C@H](Cc2ccccc2)NC(=O)[C@H](CCC(N)=O)NC(=O)[C@H]([C@@H](C)O)NC(=O)C2CCCN2C(=O)C2CN(C2)C1=O (stereo partly drawn) [JHDC45, Hex-[Cys(3MeBn)-hhy39-Pro-Thr-Gln-Phe-Cys]-Glu-(aminopropylpiperazine-DOTA)-NH2] (Hexanoyl-C[Azetidine3carboxylic][ξP]TQF[ξC]E(X2)-OH; linker 1-7 via mXylylene)
Kd (FAP protein): < 10 nM

CCCCNC(=O)N[C@H]1CSCc2cccc(c2)CSC[C@@H](C(=O)N[C@@H](CCC(=O)NCCN2CCN(C(=O)CN3CCN(CC(=O)O)CCN(CC(=O)O)CCN(CC(=O)O)CC3)CC2)C(=O)O)NC(=O)[C@H](CC2CCCCC2)NC(=O)[C@H](CCC(N)=O)NC(=O)[C@H]([C@@H](C)O)NC(=O)[C@@H]2CCCN2C(=O)C2CN(C2)C1=O [JHDC46, nBu-urea-[Cys(3MePy)-hhy39-Pro-Thr-Gln-hhy34-Cys]-Glu-(aminoethylpiperazine-DOTA)-OH] ({NHBu-CO}-C[Azetidine3carboxylic]PTQ[Cha]CE(NH(CH2)2(4-DOTA-piperazinyl))-OH; linker 1-7 via mXylylene)
pKD (FAP) (FAP protein): B (B: 7<pKD<8)

CCCCNC(=O)N[C@H]1CSCc2cccc(c2)CSC[C@@H](C(=O)N[C@@H](CCC(=O)NCCN2CCN(C(=O)CN3CCN(CC(=O)O)CCN(CC(=O)O)CCN(CC(=O)O)CC3)CC2)C(=O)O)NC(=O)[C@H](Cc2ccccc2)NC(=O)[C@H](CCC(N)=O)NC(=O)[C@H]([C@@H](C)O)NC(=O)C2CCCN2C(=O)C2CN(C2)C1=O (stereo partly drawn) [JHDC50, nBu-urea-[Cys(3MeBn)-hhy39-Pro-Thr-Gln-Phe-Cys]-Glu-(aminoethylpiperazine-DOTA)-OH] ({NHBu-CO}-C[Azetidine3carboxylic][ξP]TQFCE(NH(CH2)2(4-DOTA-piperazinyl))-OH; linker 1-7 via mXylylene)
Kd (FAP protein): 10 to 100 nM

CCCCNC(=O)N[C@H]1CSCc2cccc(c2)CSCC(C(=O)N[C@@H](CCNC(=O)CCCNC(=O)CN2CCN(CC(=O)O)CCN(CC(=O)O)CCN(CC(=O)O)CC2)C(=O)O)NC(=O)[C@H](CC2CCCCC2)NC(=O)[C@H](CCC(N)=O)NC(=O)[C@H]([C@@H](C)O)NC(=O)[C@@H]2CCCN2C(=O)C2CN(C2)C1=O (stereo partly drawn) [JHDC55, nBu-urea-[Cys(3MeBn)-hhy39-Pro-Thr-Gln-hhy34-Cys]-DABA-(ABA-DOTA)-OH] ({NHBu-CO}-C[Azetidine3carboxylic]PTQ[Cha][ξC][Dab]([GABA-DOTA])-OH; linker 1-7 via mXylylene)
Kd (FAP protein): < 10 nM

CCCCCC(=O)N[C@H]1CSCc2cccc(c2)CSC[C@@H](C(=O)N[C@@H](CCC(=O)NCCOCCNC(=O)CN2CCN(CC(=O)O)CCN(CC(=O)O)CCN(CC(=O)O)CC2)C(=O)O)NC(=O)[C@H](Cc2ccccc2)NC(=O)[C@H](CCC(N)=O)NC(=O)[C@H]([C@@H](C)O)NC(=O)[C@@H]2CCCN2C(=O)C2CN(C2)C1=O [^177Lu -JHDC06, metal not drawn] (Hexanoyl-C[Azetidine3carboxylic]PTQFCE(NH(CH2)2O(CH2)2NHDOTA)-OH; linker 1-7 via mXylylene)
logP [1]: -2.69

CCCCCC(=O)N[C@H]1CSCc2cccc(c2)CSC[C@@H](C(=O)N[C@@H](CCCCNC(=O)CCCCCNC(=O)CN2CCN(CC(=O)O)CCN(CC(=O)O)CCN(CC(=O)O)CC2)C(=O)O)NC(=O)[C@H](CC2CCCCC2)NC(=O)C(CCC(N)=O)NC(=O)[C@H]([C@@H](C)O)NC(=O)C2CCCN2C(=O)C[C@@H]2CCCC(C2)C1=O (some centres unmarked) [^177Lu -JHDC13, metal not drawn] ([ξP]T[ξQ][Cha]CK([Ahx-DOTA])-OH; linker N-5 via X6)
logP [1]: -1.3

CCCCCC(=O)N[C@H]1CSCc2cccc(c2)CSC[C@@H](C(=O)N[C@@H](CCCCNC(=O)COCCOCCNC(=O)CN2CCN(CC(=O)O)CCN(CC(=O)O)CCN(CC(=O)O)CC2)C(=O)O)NC(=O)[C@H](CC2CCCCC2)NC(=O)[C@H](CCC(N)=O)NC(=O)[C@H]([C@@H](C)O)NC(=O)[C@@H]2CCCN2C(=O)N[C@@H]2CCCN(C2)C1=O [^177Lu -JHDC14, metal not drawn] (PTQ[Cha]CK([AEEA-DOTA])-OH; linker N-5 via X5)
logP [1]: -1.39

CCCCCC(=O)N[C@H]1CSCc2cccc(c2)CSC[C@@H](C(=O)N[C@@H](CCCCNC(=O)COCCOCCNC(=O)CN2CCN(CC(=O)O)CCN(CC(=O)O)CCN(CC(=O)O)CC2)C(=O)O)NC(=O)CNC(=O)[C@H](CC2CCCCC2)NC(=O)[C@H](CCC(N)=O)NC(=O)[C@H]([C@@H](C)O)NC(=O)C2CCCN2C(=O)N[C@@H]2CCCN(C2)C1=O (some centres unmarked) [^177Lu -JHDC15, metal not drawn] ([ξP]TQ[Cha]GCK([AEEA-DOTA])-OH; linker N-6 via X5)
logP ([1]; read-out: ClogP): -1.6

CCCCCC(=O)N[C@H]1CSCc2cc(CSCCNC(=O)CN3CCN(CC(=O)O)CCN(CC(=O)O)CCN(CC(=O)O)CC3)cc(c2)CSC[C@@H](C(=O)O)NC(=O)[C@H](Cc2ccccc2)NC(=O)[C@H](CCC(N)=O)NC(=O)[C@H]([C@@H](C)O)NC(=O)[C@@H]2CCCN2C(=O)[C@@H]2CCCN2C1=O [^177Lu-FAP-2286, metal not drawn, reference compound]
logP ([1]; read-out: ClogP): -2.74 | Tumor volume (mm^3) (HT1080 2 #; Day 0): 466.80 ± 118.37 mm^3 | Tumor volume (mm^3) (HT1080 2 #; Day 2): 630.23 ± 96.79 mm^3 | Tumor volume (mm^3) (HT1080 2 #; Day 6): 525.29 ± 100.39 mm^3 | Tumor volume (mm^3) (HT1080 2 #; Day 9): 1,041.55 ± 348.07 mm^3 | Tumor volume (mm^3) (HT1080 2 #; Day 13): 2,345.02 ± 298.66 mm^3 | Tumor volume (mm^3) (HT1080 2 #; Day 16): 3,180.37 ± 697.35 mm^3
